Brc1c(Br)c(Br)c(Oc2c(Br)c(Br)c(Br)c(Br)c2Br)c(Br)c1Br
solubility (mole fraction)
Conditions | in THF | in acetone | in ethyl acetate | in limonene | in toluene
283 K | 0.00449 | 4.4e-05 | 0.000133 | 0.00162 | 0.00274
293 K | 0.00524 | 6e-05 | 0.000173 | 0.00242 | 0.00362
303 K | 0.00607 | 9.1e-05 | 0.000252 | 0.00282 | 0.0052
313 K | 0.00695 | 0.000119 | 0.000346 | 0.00397 | 0.00651
323 K | 0.0085 | 0.000145 | 0.000455 | 0.00485 | 0.00771

From BigSolDB 2.1
